Article PMC5501184 (Journal of medicinal chemistry, 2017)
Where two headings read alike, the source gives them in different places.

What was measured:
hDAT [1] = target: T1, hDAT (Homo sapiens, UniProt Q01959); assay: PDSP screen: [^3H]24 binding at hDAT; conditions: for inhibition at 10 µM: read-out: hDAT Binding Inhibition, % of control; for remaining activity at 10 µM: read-out: hDAT Binding Enhancement, % of control
hDAT [2] = target: T1, hDAT; conditions: 10 μM; [^3H]24 binding, PDSP; ref Janowsky et al.[3]; cited from earlier work
mA3AR = target: T2, mA3AR (Mus musculus, UniProt Q61618); assay: A3AR radioligand; format: binding; conditions: for A3AR Binding % at 10 μM (m): mouse, % inhibition at 10 μM, radioligand [^125I]25
T2 sequence (Q61618 1-319): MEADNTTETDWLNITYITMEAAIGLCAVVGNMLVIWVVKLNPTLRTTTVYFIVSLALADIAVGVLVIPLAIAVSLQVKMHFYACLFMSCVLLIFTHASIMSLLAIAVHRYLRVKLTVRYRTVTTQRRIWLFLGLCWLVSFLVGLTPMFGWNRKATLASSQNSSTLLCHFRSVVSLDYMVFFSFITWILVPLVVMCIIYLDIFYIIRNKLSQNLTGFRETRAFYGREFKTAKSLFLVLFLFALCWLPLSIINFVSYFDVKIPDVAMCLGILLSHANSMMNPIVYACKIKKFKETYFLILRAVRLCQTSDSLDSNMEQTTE

hDAT [3] = target: T1, hDAT; assay: [^125I]23 binding to HEK-hDAT membranes; conditions: maximal enhancement
hNET = hNET (Homo sapiens, UniProt P23975); assay: [^125I]23 binding to HEK-hNET membranes; conditions: maximal enhancement
Sequence of hNET (P23975 whole entry): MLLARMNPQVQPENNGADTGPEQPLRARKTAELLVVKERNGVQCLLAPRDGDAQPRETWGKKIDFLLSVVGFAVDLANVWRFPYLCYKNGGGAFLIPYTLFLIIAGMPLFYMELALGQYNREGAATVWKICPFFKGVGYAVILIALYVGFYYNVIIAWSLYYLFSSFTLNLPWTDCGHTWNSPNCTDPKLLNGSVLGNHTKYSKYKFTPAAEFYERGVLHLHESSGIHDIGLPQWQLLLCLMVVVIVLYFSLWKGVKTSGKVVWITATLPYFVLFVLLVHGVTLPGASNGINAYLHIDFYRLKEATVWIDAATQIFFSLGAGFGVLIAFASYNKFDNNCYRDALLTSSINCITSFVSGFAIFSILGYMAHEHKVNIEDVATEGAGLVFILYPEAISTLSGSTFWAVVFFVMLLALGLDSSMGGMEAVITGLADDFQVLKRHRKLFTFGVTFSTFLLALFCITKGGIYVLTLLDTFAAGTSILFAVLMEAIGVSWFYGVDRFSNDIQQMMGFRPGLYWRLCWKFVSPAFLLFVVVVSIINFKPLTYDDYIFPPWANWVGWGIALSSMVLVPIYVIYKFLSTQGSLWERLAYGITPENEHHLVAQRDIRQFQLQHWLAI

[4] = system: mouse chronic constriction injury (CCI) model of neuropathic pain; assay: mouse chronic constriction injury; format: in vivo; conditions: 3 μmol/kg, p.o.; 7 d post-injury
hDAT [5] = target: T1, hDAT; assay: [^3H]26 binding to HEK-hDAT membranes

T1 sequence (Q01959 whole entry): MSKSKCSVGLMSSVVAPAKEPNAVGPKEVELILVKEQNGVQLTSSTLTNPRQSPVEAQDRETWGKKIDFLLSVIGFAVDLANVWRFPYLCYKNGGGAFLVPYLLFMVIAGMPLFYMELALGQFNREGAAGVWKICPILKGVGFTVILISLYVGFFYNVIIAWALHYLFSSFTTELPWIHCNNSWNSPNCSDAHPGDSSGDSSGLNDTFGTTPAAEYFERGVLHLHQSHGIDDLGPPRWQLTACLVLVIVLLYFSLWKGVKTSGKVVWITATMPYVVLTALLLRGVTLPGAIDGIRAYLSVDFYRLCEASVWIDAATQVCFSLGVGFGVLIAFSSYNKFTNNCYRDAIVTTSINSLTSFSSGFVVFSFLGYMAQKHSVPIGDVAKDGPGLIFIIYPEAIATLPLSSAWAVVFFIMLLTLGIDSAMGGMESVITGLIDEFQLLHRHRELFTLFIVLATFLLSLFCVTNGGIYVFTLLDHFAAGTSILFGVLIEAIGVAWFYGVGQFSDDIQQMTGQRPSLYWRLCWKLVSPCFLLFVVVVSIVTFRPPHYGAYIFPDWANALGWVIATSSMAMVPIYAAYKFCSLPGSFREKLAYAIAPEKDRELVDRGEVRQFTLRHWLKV

| SMILES | inhibition at 10 µM (hDAT [1]) [%] | further results |
| --- | --- | --- |
| CCNc1cc(C#Cc2ccc(Cl)s2)nc2c1ncn2[C@H]1[C@H](O)[C@H](O)[C@]2(C(=O)NC)C[C@H]12 [5b] | -20 to 20 | – |
| CNC(=O)[C@@]12C[C@@H]1[C@@H](n1cnc3c(NC)nc(C#Cc4ccc(Br)s4)nc31)[C@H](O)[C@@H]2O [compound 2] | – | hDAT Binding Inhibition, % of control (hDAT [2]): NE (no effect) |
| CNC(=O)[C@@]12C[C@@H]1[C@@H](n1cnc3c(NC)nc(C#Cc4ccc(F)c(F)c4)nc31)[C@H](O)[C@@H]2O [compound 3] | – | hDAT Binding Inhibition, % of control (hDAT [2]): NE (no effect) |
| CNC(=O)[C@@]12C[C@@H]1[C@@H](n1cnc3c(NC)nc(C#Cc4ccc(Cl)s4)cc31)[C@H](O)[C@@H]2O [compound 6, (1S,2R,3S,4R,5S)-4-(6-((5-Chlorothiophen-2-yl)ethynyl)-4-(methylamino)-1H-imidazo[4,5-c]pyridin-1-yl)-2,3-dihydroxy-N-methylbicyclo[3.1.0]hexane-1-carboxamide] | < -20 | A3AR Binding % at 10 μM (m) (mA3AR): < 50% |
| CCCNc1nc(C#Cc2ccc(Cl)s2)nc2c1ncn2[C@H]1[C@H](O)[C@H](O)[C@]2(C(=O)NC)C[C@H]12 [compound 7] | – | fold greater mA3AR affinity compared to ribose 5′-amide 28 (mA3AR): 88 fold; hDAT Binding Inhibition, % of control (hDAT [2]): NE (no effect) |
| CNc1nc(C#Cc2ccc(Cl)s2)nc2c1ncn2[C@H]1[C@H](O)[C@H](O)[C@]2(C(=O)NCCN)C[C@H]12 [compound 8, (1S,2R,3S,4R,5S)-N-(2-Aminoethyl)-4-(2-((5-chlorothiophen-2-yl)ethynyl)-6-(methylamino)-9H-purin-9-yl)-2,3-dihydroxybicyclo[3.1.0]hexane-1-carboxamide] | < -20 | remaining activity at 10 µM (hDAT [1]): 133% |
| CNc1nc(C#Cc2ccc(Cl)s2)nc2c1ncn2[C@H]1[C@H](O)[C@H](O)[C@]2(C(=O)OC)C[C@H]12 [compound 9, Methyl (1S,2R,3S,4R,5S)-4-(2-((5-chlorothiophen-2-yl)ethynyl)-6-(methylamino)-9H-purin-9-yl)-2,3-dihydroxybicyclo[3.1.0]hexane-1-carboxylate] | < -20 | remaining activity at 10 µM (hDAT [1]): 391%; Ki (mA3AR): > 10 µM; A3AR Binding % at 10 μM (m) (mA3AR): < 50%; hDAT [^125I]23 binding, % control binding (hDAT [3]): ~450%; hNET [^125I]23 binding, % control binding (hNET): ~370% |
| CCOC(=O)[C@@]12C[C@@H]1[C@@H](n1cnc3c(NC)nc(C#Cc4ccc(Cl)s4)nc31)[C@H](O)[C@@H]2O [compound 10, Ethyl (1S,2R,3S,4R,5S)-4-(2-((5-chlorothiophen-2-yl)ethynyl)-6-(methylamino)-9H-purin-9-yl)-2,3-dihydroxybicyclo[3.1.0]hexane-1-carboxylate] | < -20 | A3AR Binding % at 10 μM (m) (mA3AR): < 50%; hNET [^125I]23 binding, % control binding (hNET): ~370% |
| CNc1nc(C#Cc2ccc(Br)s2)nc2c1ncn2[C@H]1[C@H](O)[C@H](O)[C@]2(C(=O)OC)C[C@H]12 [compound 11, Methyl (1S,2R,3S,4R,5S)-4-(2-((5-bromothiophen-2-yl)ethynyl)-6-(methylamino)-9H-purin-9-yl)-2,3-dihydroxybicyclo[3.1.0]hexane-1-carboxylate] | < -20 | – |
| CCOC(=O)[C@@]12C[C@@H]1[C@@H](n1cnc3c(NC)nc(C#Cc4ccc(Br)s4)nc31)[C@H](O)[C@@H]2O [compound 12, Ethyl (1S,2R,3S,4R,5S)-4-(2-((5-bromothiophen-2-yl)ethynyl)-6-(methylamino)-9H-purin-9-yl)-2,3-dihydroxybicyclo[3.1.0]hexane-1-carboxylate] | < -20 | – |
| CCOC(=O)[C@@]12C[C@@H]1[C@@H](n1cnc3c(NC)nc(C#Cc4ccc(Cl)s4)cc31)[C@H](O)[C@@H]2O [compound 13, Ethyl (1S,2R,3S,4R,5S)-4-(6-((5-chlorothiophen-2-yl)ethynyl)-4-(methylamino)-1H-imidazo[4,5-c]pyridin-1-yl)-2,3-dihydroxybicyclo[3.1.0]hexane-1-carboxylate] | < -20 | – |
| CCCOC(=O)[C@@]12C[C@@H]1[C@@H](n1cnc3c(NC)nc(C#Cc4ccc(Cl)s4)nc31)[C@H](O)[C@@H]2O [compound 14, n-Propyl (1S,2R,3S,4R,5S)-4-(2-((5-chlorothiophen-2-yl)ethynyl)-6-(methylamino)-9H-purin-9-yl)-2,3-dihydroxybicyclo[3.1.0]hexane-1-carboxylate] | < -20 | – |
| CNc1nc(C#Cc2ccc(Cl)s2)nc2c1ncn2[C@H]1[C@H](O)[C@H](O)[C@]2(C(=O)OC(C)C)C[C@H]12 [compound 15, Isopropyl (1S,2R,3S,4R,5S)-4-(2-((5-chlorothiophen-2-yl)ethynyl)-6-(methylamino)-9H-purin-9-yl)-2,3-dihydroxybicyclo[3.1.0]hexane-1-carboxylate] | – | hDAT Binding Inhibition, % of control (hDAT [1]; 10 μM, [^3H]24 binding, PDSP): slightly inhibited binding |
| CCCCOC(=O)[C@@]12C[C@@H]1[C@@H](n1cnc3c(NC)nc(C#Cc4ccc(Cl)s4)nc31)[C@H](O)[C@@H]2O [compound 16, Butyl (1S,2R,3S,4R,5S)-4-(2-((5-chlorothiophen-2-yl)ethynyl)-6-(methylamino)-9H-purin-9-yl)-2,3-dihydroxybicyclo[3.1.0]hexane-1-carboxylate] | < -20 | – |
| CNc1nc(C#Cc2ccc(Cl)s2)nc2c1ncn2[C@H]1[C@H](O)[C@H](O)[C@]2(C(=O)OCCC(C)C)C[C@H]12 [compound 17, Isopentyl (1S,2R,3S,4R,5S)-4-(2-((5-chlorothiophen-2-yl)ethynyl)-6-(methylamino)-9H-purin-9-yl)-2,3-dihydroxybicyclo[3.1.0]hexane-1-carboxylate] | < -20 | – |
| CNc1nc(C#Cc2ccc(Cl)s2)nc2c1ncn2[C@H]1[C@H](O)[C@H](O)[C@]2(C(=O)OCCC3CCCCC3)C[C@H]12 [compound 18, 2-Cyclohexylethyl (1S,2R,3S,4R,5S)-4-(2-((5-chlorothiophen-2-yl)ethynyl)-6-(methylamino)-9H-purin-9-yl)-2,3-dihydroxybicyclo[3.1.0]hexane-1-carboxylate] | -20 to 20 | – |
| CNc1nc(C#Cc2ccc(Cl)s2)nc2c1ncn2[C@H]1[C@H](O)[C@H](O)[C@]2(C(=O)OCc3ccccc3)C[C@H]12 [compound 19, Benzyl (1S,2R,3S,4R,5S)-4-(2-((5-chlorothiophen-2-yl)ethynyl)-6-(methylamino)-9H-purin-9-yl)-2,3-dihydroxybicyclo[3.1.0]hexane-1-carboxylate] | -20 to 20 | – |
| CNc1nc(C#Cc2ccc(Cl)s2)nc2c1ncn2[C@H]1[C@H](O)[C@H](O)[C@]2(C(=O)OCCc3ccccc3)C[C@H]12 [compound 20, 2-Phenylethyl (1S,2R,3S,4R,5S)-4-(2-((5-chlorothiophen-2-yl)ethynyl)-6-(methylamino)-9H-purin-9-yl)-2,3-dihydroxybicyclo[3.1.0]hexane-1-carboxylate] | -20 to 20 | – |
| CNc1nc(C#Cc2ccc(Cl)s2)nc2c1ncn2[C@H]1[C@H](O)[C@H](O)[C@]2(C(=O)OCCCc3ccccc3)C[C@H]12 [compound 21, 3-Phenylpropyl (1S,2R,3S,4R,5S)-4-(2-((5-chlorothiophen-2-yl)ethynyl)-6-(methylamino)-9H-purin-9-yl)-2,3-dihydroxybicyclo[3.1.0]hexane-1-carboxylate] | -20 to 20 | – |
| CNc1nc(C#Cc2ccc(Cl)s2)nc2c1ncn2[C@H]1[C@H](O)[C@H](O)[C@]2(C(=O)O)C[C@H]12 [compound 22, (1S,2R,3S,4R,5S)-4-(2-((5-Chlorothiophen-2-yl)ethynyl)-6-(methylamino)-9H-purin-9-yl)-2,3-dihydroxybicyclo[3.1.0]hexane-1-carboxylic acid] | < -20 | – |
| CNC(=O)[C@H]1O[C@@H](n2cnc3c(NC)nc(C#Cc4ccc(Cl)s4)nc32)[C@H](O)[C@@H]1O [compound 27, (2S,3S,4R,5R)-5-(2-((5-Chlorothiophen-2-yl)ethynyl)-6-(methylamino)-9H-purin-9-yl)-3,4-dihydroxy-N-methyltetrahydrofuran-2-carboxamide] | < -20 | efficacy in increasing paw withdrawal threshold (PWT) [4]: fully efficacious |
| CCCNc1nc(C#Cc2ccc(Cl)s2)nc2c1ncn2[C@@H]1O[C@H](C(=O)NC)[C@@H](O)[C@H]1O [compound 28, (2S,3S,4R,5R)-5-(2-((5-Chlorothiophen-2-yl)ethynyl)-6-(n-propylamino)-9H-purin-9-yl)-3,4-dihydroxy-N-methyltetrahydrofuran-2-carboxamide] | < -20 | efficacy in increasing paw withdrawal threshold (PWT) [4]: fully efficacious |
| CNc1nc(C#Cc2ccc(Cl)s2)nc2c1ncn2[C@@H]1O[C@H](C(=O)OC)[C@@H](O)[C@H]1O [compound 29, Methyl (2S,3S,4R,5R)-5-(2-((5-Chlorothiophen-2-yl)ethynyl)-6-(methylamino)-9H-purin-9-yl)-3,4-dihydroxytetrahydrofuran-2-carboxylate] | < -20 | fold higher EC50 than 9 for enhancement of [^3H]26 binding at hDAT (hDAT [5]): 7 fold |
